From US11453669B2, “Polycyclic pyridone derivative” (Shionogi & Co., Ltd., priority 2018, dated 2022) come the findings set out here.

Format in all cases: cell-based
Data set [1] deals with HIV mutant strain 4 (T97A/E138T/G140S/Q148H). Nature of the data set: Resistance evaluation test, HeLa-CD4 reporter assay, mutant strain 4. As to conditions: FC=EC50 of the mutant strain/EC50 of the wild strain, HeLa-CD4 cells. On the procedure:
(§1) Serial dilutions of a test sample were prepared in a 96-well microplate (50 μL/well). 2.5×10^5 cells/mL of a HeLa-CD4 cell suspension was dispensed at 100 μL/well to the plate containing the test sample. Then, an HIV virus solution (wild strain and mutant strain) was dispensed at 50 μL/well. The plate was mixed with a plate mixer and cultured for 3 days in a CO2 incubator. The culture supernatant in each well was removed by suction. A cell lysis buffer in a reporter assay kit was dispensed at 100 μL/well, and the plate was frozen in a freezer (−80° C.). The plate frozen in a freezer was thawed at room temperature, then mixed with a plate mixer, and centrifuged at 1,200 rpm for 5 minutes. The supernatant of each well was dispensed at 20 μL/well to a 96-well microplate (BLACK). A chemiluminescent in the reporter assay kit reagent was dispensed at 100 μL/well and reacted at room temperature for approximately 1 hour. Then, luminescence intensity was measured using MicroBeta TRILUX. […] FC=EC50 of the mutant strain/EC50 of the wild strain (Results) The FC for mutant strain 1 (E138K/G140S/Q148H/N155H) and the FC for mutant strain 2 (E92Q/E138T/G140S/Q148H) are shown in the table.

The test system of data set [2] is HIV. Nature of the data set: Anti-HIV activity (MT-4 cells, MTT). As to conditions: read-out: EC50_nM (50% HIV inhibitory concentration); MT-4 cells, cultured 4 days, MTT. In a few lines:
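MT-4 cells (2.5×10^5 cells/mL) infected with HIV in the presence of serially diluted compound, cultured 4 days in CO2 incubator. Viability read by MTT (1 h), cell lysis, then absorbance at 560 and 690 nm.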

For data set [3], the target named is T1, Voltage gated sodium channel (Nav1.5 channel) encoded by SCN5A gene (Homo sapiens, UniProt Q14524).
T1 construct: expressed in transfected cells; host or cells: HEK cells
Briefly: Nav test (QPatch whole cell patch clamp). The note with it: HEK cells expressing Nav1.5, applied 5 minutes or more, room temperature. On the procedure:
A cell was retained at a membrane potential of −100 mV by whole cell patch clamp method using a fully automated patch clamp system (QPatch; Sophion Bioscience A/S), and INa induced by depolarization pulse stimulation at −10 mV for 20 ms was recorded. […] The extracellular solution in which the medium and the compound of the present invention had been dissolved at each objective concentration was applied to the cell for 5 minutes or more under conditions of room temperature.
(In general: Patch clamp records ionic current or voltage across a cell membrane.)

The subject of data set [4] is HIV mutant strain 2 (E92Q/E138T/G140S/Q148H). The note with it: FC=EC50 of the mutant strain/EC50 of the wild strain, HeLa-CD4 cells. On the procedure: (§2) Serial dilutions of a test sample were prepared in a 96-well microplate (50 μL/well). 2.5×10^5 cells/mL of a HeLa-CD4 cell suspension was dispensed at 100 μL/well to the plate containing the test sample. Then, an HIV virus solution (wild strain and mutant strain) was dispensed at 50 μL/well. The plate was mixed with a plate mixer and cultured for 3 days in a CO2 incubator. The culture supernatant in each well was removed by suction. A cell lysis buffer in a reporter assay kit was dispensed at 100 μL/well, and the plate was frozen in a freezer (−80° C.). The plate frozen in a freezer was thawed at room temperature, then mixed with a plate mixer, and centrifuged at 1,200 rpm for 5 minutes. The supernatant of each well was dispensed at 20 μL/well to a 96-well microplate (BLACK). A chemiluminescent in the reporter assay kit reagent was dispensed at 100 μL/well and reacted at room temperature for approximately 1 hour. Then, luminescence intensity was measured using MicroBeta TRILUX.

Data set [5] relates to HIV mutant strain 1 (E138K/G140S/Q148H/N155H). The note with it: FC=EC50 of the mutant strain/EC50 of the wild strain, HeLa-CD4 cells. The method, then: as §2
Data set [6] deals with HIV mutant strain 3 (E92Q/E138K/G140S/Q148H). Briefly: Resistance evaluation test, HeLa-CD4 reporter assay, mutant strain 3. As to conditions: FC=EC50 of the mutant strain/EC50 of the wild strain, HeLa-CD4 cells. The method, then: as §1
(In general: In a reporter assay the amount or activity of a reporter protein is the signal.)

T1 sequence (Q14524 whole entry): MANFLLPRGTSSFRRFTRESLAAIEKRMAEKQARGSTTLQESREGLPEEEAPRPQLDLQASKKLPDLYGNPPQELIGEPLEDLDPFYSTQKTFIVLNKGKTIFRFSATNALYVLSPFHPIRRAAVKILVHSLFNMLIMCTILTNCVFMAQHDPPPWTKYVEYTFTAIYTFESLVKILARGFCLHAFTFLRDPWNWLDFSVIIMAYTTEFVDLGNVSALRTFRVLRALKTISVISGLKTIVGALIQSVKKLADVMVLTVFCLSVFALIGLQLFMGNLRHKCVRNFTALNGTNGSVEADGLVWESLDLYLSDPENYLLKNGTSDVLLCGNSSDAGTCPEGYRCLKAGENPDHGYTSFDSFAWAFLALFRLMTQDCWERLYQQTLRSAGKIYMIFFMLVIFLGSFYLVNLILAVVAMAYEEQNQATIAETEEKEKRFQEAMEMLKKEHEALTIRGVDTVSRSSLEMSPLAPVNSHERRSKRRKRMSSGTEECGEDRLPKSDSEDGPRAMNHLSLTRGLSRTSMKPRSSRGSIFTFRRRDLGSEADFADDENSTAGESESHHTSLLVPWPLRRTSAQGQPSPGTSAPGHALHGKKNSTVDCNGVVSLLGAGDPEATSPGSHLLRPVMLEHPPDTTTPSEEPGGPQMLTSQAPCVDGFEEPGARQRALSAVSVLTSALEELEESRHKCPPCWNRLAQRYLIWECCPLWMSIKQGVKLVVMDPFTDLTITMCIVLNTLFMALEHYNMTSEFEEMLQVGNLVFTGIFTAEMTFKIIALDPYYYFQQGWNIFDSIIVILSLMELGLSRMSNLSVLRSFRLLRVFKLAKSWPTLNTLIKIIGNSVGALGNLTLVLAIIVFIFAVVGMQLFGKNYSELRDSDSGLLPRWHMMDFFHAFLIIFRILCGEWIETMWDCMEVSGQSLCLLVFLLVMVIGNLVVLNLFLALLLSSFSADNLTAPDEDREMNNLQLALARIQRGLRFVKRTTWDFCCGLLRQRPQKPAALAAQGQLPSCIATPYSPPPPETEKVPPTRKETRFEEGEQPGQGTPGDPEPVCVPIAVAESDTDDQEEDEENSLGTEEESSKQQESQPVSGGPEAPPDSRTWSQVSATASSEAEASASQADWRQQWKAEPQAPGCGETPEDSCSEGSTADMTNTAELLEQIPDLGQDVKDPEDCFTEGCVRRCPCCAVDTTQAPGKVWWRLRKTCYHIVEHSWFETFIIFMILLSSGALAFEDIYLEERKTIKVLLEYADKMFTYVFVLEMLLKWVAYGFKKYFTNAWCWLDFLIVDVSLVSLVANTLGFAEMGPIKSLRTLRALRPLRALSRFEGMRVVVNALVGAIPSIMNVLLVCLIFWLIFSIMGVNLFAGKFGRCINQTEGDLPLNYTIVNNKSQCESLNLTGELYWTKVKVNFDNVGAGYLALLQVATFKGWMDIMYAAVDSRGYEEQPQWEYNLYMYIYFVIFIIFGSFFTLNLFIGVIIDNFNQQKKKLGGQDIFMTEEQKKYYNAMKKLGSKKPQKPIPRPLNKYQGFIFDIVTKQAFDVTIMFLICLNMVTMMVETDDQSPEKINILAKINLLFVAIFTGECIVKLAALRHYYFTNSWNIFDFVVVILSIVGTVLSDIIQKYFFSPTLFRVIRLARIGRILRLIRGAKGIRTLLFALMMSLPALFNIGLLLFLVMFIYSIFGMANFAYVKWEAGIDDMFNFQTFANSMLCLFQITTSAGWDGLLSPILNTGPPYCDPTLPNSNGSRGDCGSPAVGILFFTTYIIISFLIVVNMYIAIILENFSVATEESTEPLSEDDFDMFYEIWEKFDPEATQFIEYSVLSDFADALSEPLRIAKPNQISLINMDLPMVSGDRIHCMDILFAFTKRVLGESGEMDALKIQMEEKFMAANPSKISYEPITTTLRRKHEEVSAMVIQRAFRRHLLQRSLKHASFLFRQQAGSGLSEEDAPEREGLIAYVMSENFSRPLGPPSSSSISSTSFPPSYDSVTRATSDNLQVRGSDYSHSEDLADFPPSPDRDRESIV

As for `CCN1C(=O)c2c(O)c(=O)c(-c3nnc(Cc4ccc(F)cc4F)s3)cn2N2CCCC[C@@H]12` [Compound I-002], in data set [1], the “FC for mutant strain 4” value is recorded as 3.2. Besides, the EC50 in data set [2] turned out to be 3.2 nM. In addition, the “ratio of maximum peak current (INa) with compound relative to medium” value in data set [3] turned out to be 102%. Moreover, the “FC (fold change) for mutant strain 2” value in data set [4] is on record as 7.5. The “FC (fold change) for mutant strain 1” value in data set [5] is listed as 5.6. Moreover, the “FC for mutant strain 3” value in data set [6] is given as 7.7.
